Measured values taken from ChEMBL document CHEMBL1201862, “PubChem BioAssay data set” (2004).
Blank lines part the entries; values can stand above or below the compound they belong to. The source made the active and inactive calls.

Assays:
Protein Wnt-3a = Protein Wnt-3a (Mus musculus, UniProt P27467); experiment: Wnt3a-driven reporter signaling inhibition, dose response, selectivity assay for Gli-SUFU antagonist project, Wnt-LIGHT cells, luminescence (AID 651570); type: functional; settings: read-out: IC50_Mean;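 note: Wnt-LIGHT reporter cells stimulated with conditioned medium from Wnt3a-producing cells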
[1] = cytotoxicity in HEK-293T cells, dose response, cytotoxicity control for TCR NF-kB inhibitor project, luminescence, T-cell screen hits (AID 489026); type: functional, cell-based;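 note: cells exposed to compound about 14 hours before the viability readout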
[2] = target: T1, Tyrosine-protein phosphatase non-receptor type 11 (Homo sapiens, UniProt Q06124); experiment: SHP2 phosphatase inhibition, dose response, selectivity assay for STEP inhibitor project, biochemical (AID 602367); type: functional; settings: read-out: IC50_Mean
T1 sequence (Q06124 whole entry): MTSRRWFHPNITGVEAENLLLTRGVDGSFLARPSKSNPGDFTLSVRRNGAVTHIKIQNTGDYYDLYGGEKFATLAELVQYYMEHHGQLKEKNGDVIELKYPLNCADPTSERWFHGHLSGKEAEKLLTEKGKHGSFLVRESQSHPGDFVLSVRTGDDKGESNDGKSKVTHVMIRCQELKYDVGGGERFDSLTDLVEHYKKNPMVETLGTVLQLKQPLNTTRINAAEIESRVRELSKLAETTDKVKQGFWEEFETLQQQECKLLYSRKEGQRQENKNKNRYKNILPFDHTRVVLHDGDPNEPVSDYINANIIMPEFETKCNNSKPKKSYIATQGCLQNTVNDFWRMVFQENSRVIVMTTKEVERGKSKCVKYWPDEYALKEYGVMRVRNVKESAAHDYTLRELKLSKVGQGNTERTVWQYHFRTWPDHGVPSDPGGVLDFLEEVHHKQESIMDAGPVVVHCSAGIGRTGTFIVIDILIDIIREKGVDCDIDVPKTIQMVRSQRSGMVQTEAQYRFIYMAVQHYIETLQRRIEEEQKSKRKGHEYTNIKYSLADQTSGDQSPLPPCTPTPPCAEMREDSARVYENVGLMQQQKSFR

[3] = target: T2, Tyrosine-protein phosphatase non-receptor type 5 (Homo sapiens, UniProt P54829); experiment: STEP phosphatase inhibitors, confirmation, biochemical, fluorescence intensity, uHTS hits (AID 602372); type: functional; settings: read-out: IC50_Mean
T2 sequence (P54829 whole entry): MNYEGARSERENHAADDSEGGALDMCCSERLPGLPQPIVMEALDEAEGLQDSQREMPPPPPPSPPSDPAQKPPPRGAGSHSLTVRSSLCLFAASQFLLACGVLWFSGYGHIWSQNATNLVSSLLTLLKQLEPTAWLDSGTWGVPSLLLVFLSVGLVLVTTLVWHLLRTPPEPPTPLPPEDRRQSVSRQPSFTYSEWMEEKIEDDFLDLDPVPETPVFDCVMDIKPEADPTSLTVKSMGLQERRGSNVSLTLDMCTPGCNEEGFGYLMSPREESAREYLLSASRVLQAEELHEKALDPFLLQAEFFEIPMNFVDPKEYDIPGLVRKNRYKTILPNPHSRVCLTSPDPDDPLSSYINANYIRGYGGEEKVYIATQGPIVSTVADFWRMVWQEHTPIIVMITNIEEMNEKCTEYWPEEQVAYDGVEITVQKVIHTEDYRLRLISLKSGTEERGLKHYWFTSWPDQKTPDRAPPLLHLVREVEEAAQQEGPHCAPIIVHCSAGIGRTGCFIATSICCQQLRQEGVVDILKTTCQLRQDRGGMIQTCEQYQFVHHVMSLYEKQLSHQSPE

[4] = target: T3, Carboxy-terminal domain RNA polymerase II polypeptide A small phosphatase 1 (Homo sapiens, UniProt Q9GZU7); experiment: inhibitors of CTDSP1, concentration-response testing, biochemical assay, absorbance-based, actives from ultra-high-throughput screening (AID 540297); type: functional
T3 sequence (Q9GZU7 whole entry): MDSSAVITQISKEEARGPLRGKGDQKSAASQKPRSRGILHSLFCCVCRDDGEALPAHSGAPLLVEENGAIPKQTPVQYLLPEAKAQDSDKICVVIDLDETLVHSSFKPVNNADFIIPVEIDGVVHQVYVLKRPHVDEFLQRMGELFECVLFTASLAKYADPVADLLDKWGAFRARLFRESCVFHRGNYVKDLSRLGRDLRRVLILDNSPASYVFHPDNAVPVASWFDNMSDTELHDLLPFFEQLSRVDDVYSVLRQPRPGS

[5] = target: Dual specificity protein phosphatase 3 (Homo sapiens, UniProt P51452); experiment: VHR phosphatase inhibition, dose response, selectivity assay for STEP inhibitor project, biochemical (AID 602374); type: functional; settings: read-out: IC50_Mean
[6] = target: T4, Small ubiquitin-related modifier 1 (Homo sapiens, UniProt P63165); experiment: inhibitors of SUMO1 peptide binding, dose response, biochemical, fluorescence polarization, uHTS hits (AID 624382); type: functional; settings: read-out: IC50_Mean
[7] = target: T4, Small ubiquitin-related modifier 1; experiment: inhibitors of SUMO1 partner interactions, dose response, biochemical, FRET (AID 624383); type: functional; settings: read-out: IC50_Mean
[8] = A549 cell cytotoxicity, dose response, cytotoxicity control, plate reader, cherry-pick, antagonist series (AID 743412); type: functional, cell-based
[9] = Shn3 3'UTR reporter inhibitors, dose response, cell-based, Clone20 osteoblasts, firefly luciferase, cherry-picked (AID 624132); type: functional;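 note: firefly luciferase luminescence from reporter carrying the Shn3 3'UTR in osteoblasts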
[10] = LGR2 antagonists, dose response, cell-based, HEK293, CRE-luciferase reporter, cherry pick, set 2 (AID 743343); type: functional;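 note: transfected cells were stimulated with diluted bursicon conditioned medium after compound addition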
[11] = MC4R antagonists, dose response, counter-screen for LGR2 antagonist project, cell-based, plate reader, cherry pick (AID 743444); type: functional;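 note: transfected HEK 293 cells stimulated with alpha-MSH peptide; potency of inhibitors of the alpha-MSH evoked signal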
INS1 = experiment: beta cell apoptosis inhibitors, cytokine rescue, dose response, luminescence, retest (AID 449756); type: functional, cell-based; settings: Rattus norvegicus;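 note: cell death triggered by IL-1 beta plus TNF-alpha plus IFN-gamma mixture; protective hits raise ATP signal compared with cytokine alone wells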
[12] = control 3'UTR Renilla luciferase suppression, dose response, counter-screen for Shn3 inhibitor project, cell-based, Clone20-Shn3RL, cherry-picked (AID 624133); type: functional
[13] = HepG2 cell cytotoxicity, dose response, cytotoxicity control for Shn3 inhibitor project, CellTiter-Glo, cherry-picked (AID 624134); type: functional, cell-based
[14] = HepG2 cell cytotoxicity, dose response, cytotoxicity control, plate reader, cherry-pick, antagonist series (AID 743416); type: functional, cell-based
Galanin receptor type 3 = target: T5, Galanin receptor type 3 (Homo sapiens, UniProt O60755); experiment: Fluorescence-based cell-based primary high throughput dose response assay to identify antagonists of the Galanin Receptor 3 (GalR3).; type: functional
T5 sequence (O60755 whole entry): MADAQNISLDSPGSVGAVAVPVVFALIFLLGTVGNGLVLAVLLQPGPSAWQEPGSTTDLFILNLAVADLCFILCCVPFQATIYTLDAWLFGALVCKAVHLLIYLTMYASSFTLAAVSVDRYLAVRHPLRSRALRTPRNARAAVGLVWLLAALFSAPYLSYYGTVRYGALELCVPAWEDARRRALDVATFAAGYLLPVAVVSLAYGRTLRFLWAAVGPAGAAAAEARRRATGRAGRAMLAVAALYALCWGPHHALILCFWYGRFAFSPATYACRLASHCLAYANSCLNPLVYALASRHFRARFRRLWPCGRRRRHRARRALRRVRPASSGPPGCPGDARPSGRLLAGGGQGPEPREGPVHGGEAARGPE

cells = type: functional, cell-based; settings: HEK-CNG
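Throughout, for EC50: target is galanin receptor GalR3 read with a cAMP biosensor in HEK293 cells.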

Chain of Protein Wnt-3a (P27467 whole entry): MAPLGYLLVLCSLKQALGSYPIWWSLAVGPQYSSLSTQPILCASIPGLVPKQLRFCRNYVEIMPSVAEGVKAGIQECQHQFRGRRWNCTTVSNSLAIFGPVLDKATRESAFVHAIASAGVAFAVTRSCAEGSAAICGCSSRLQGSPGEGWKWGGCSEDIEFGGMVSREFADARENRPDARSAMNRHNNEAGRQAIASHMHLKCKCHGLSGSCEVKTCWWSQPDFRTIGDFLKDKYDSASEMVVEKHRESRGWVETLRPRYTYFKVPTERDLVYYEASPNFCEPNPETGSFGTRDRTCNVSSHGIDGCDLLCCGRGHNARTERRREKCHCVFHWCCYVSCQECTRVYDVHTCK
T4 sequence (P63165 whole entry): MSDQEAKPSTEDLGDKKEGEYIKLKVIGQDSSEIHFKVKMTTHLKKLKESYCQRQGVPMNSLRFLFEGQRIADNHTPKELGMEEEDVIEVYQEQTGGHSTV
Chain of Dual specificity protein phosphatase 3 (P51452 whole entry): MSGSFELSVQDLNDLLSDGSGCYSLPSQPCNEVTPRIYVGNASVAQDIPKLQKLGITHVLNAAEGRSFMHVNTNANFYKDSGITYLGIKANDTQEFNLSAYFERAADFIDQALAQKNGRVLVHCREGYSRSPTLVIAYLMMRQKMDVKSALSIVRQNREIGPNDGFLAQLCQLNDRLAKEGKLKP

SMILES: Cc1ncoc1C(=O)NC1CCCc2c1cnn2-c1ccc(C(C)(C)C)cc1 (stereo not drawn)
IC50 (Protein Wnt-3a): 4.53 µM (active)
IC50 [1]: > 80 µM (inactive)

IC50 [2]: 9.22 µM (active)
IC50 [3]: 24.9 µM (inactive)
IC50 [4]: 12.8 µM (active)
IC50 [5]: 6.62 µM (active)
SMILES: COc1cccc(Nc2nn3c(=O)c4ccccc4nc3s2)c1

IC50 [2]: 5.47 µM (active)
IC50 [3]: 15.6 µM (active)
IC50 [5]: 0.927 µM (active)
SMILES: Cc1sc2nc(CSC(C)C(=O)Nc3ccc(Cl)cn3)nc(O)c2c1C (stereo not drawn)

SMILES: O=C(CSc1nc(C2CC2)nc2ccccc12)Nc1cccc(O)c1
IC50 [6]: > 66.6 µM (inactive)
IC50 [7]: 20.4 µM (inactive)

IC50 (Protein Wnt-3a): 28.9 µM (inactive)
SMILES: CNS(=O)(=O)c1cccc(C(=O)OCC(=O)c2cc(C)n(CC3CCCO3)c2C)c1 (stereo not drawn)

SMILES: Cc1cc(C)c(C)c(S(=O)(=O)N2CCN(c3ncnc4ccccc34)CC2)c1C
AC50 [8]: 31.4 µM (active)
AC50 [9]: 1.46 µM (active)
AC50 [10]: 24.9 µM (active)
AC50 [11]: 34.2 µM (active)
AC50 (INS1): 2.22 µM (active)
IC50 (Protein Wnt-3a): 1.96 µM (active)
AC50 [12]: 1.86 µM (active)
AC50 [13]: 1.91 µM (active)
AC50 [14]: 4.26 µM (active)

SMILES: O=C(NCCCl)NNc1c(Cl)cc(Cl)cc1Cl
IC50 (Galanin receptor type 3): > 29.9 µM (inactive)
EC50 (cells): > 29.9 µM (inactive)

SMILES: O=C(Nc1ccc2oc(=O)ccc2c1)c1ccc(-c2ccccc2[N+](=O)[O-])o1
IC50 [6]: > 66.6 µM (inactive)
IC50 [7]: 10.2 µM (active)

SMILES: COc1c(/C=C2\SC(Nc3ccccc3Cl)=NC2=O)cccc1[N+](=O)[O-]
IC50 (Galanin receptor type 3): 0.547 µM (active)
EC50 (cells): > 29.9 µM (inactive)

SMILES: COc1ccc(C2=CC(c3ccc4c(c3)OCO4)c3c(c4ccccc4oc3=O)O2)cc1OC (stereo not drawn)
IC50 (Galanin receptor type 3): 5.72 µM (active)
EC50 (cells): > 29.9 µM (inactive)

SMILES: COc1ccc(N(CC(=O)NCc2cccs2)S(=O)(=O)c2ccc(C(C)=O)cc2)cc1
AC50 [14]: > 52 µM (inactive)

SMILES: CCOC(=O)c1cc(-c2ccc(OC)cc2)nn1-c1ccccc1C(=O)O
IC50 [6]: > 66.6 µM (inactive)
IC50 [7]: 21.8 µM (inactive)
IC50 [4]: 14.5 µM (active)
